{
  "source": "patent US5690959A",
  "about": "“Pharmaceutical thermal infusion process” (priority 1993, dated 1997)",
  "key": {"[1]": {"conditions": "cited from earlier work"}, "[2]": {"assay": "Degradation of clavulanate on thermal infusion", "assay_type": "physicochemical"}, "[3]": {"conditions": "cited from earlier work", "remark": "listed apart in the source"}},
  "note": "Counter-ions that a name gives are not always drawn.",
  "data": [
    {"molecule": "CN/C(=N/CCSCc1nc[nH]c1C)NC#N", "note": "[Cimetidine, N\"-cyano-N-methyl-N'-[2-[[(5-methyl-1-H-imidazol-4-yl)methyl]thio]-ethyl]-guanidine]", "values": [
      {"measurement": "solubility in water", "setting": "[1]", "result": "moderately soluble in water"}
    ]},
    {"molecule": "O=C(O)[C@H]1/C(=C/CO)O[C@@H]2CC(=O)N21", "note": "[clavulanate]", "values": [
      {"measurement": "degradation of clavulanate", "setting": "[2]; more appropriate thermal infusion temperature", "result": "eliminates the degradation"},
      {"measurement": "degradation of clavulanate", "setting": "[2]; thermal infusion at the more extreme temperatures", "result": "minimal degree of degradation"},
      {"measurement": "solubility in water", "setting": "[1]", "result": "highly water soluble"}
    ]},
    {"molecule": "O=C(O)[C@H]1/C(=C/CO)O[C@@H]2CC(=O)N21", "note": "[salts of clavulanic acid, Z-(3R,5R)-2-(β-hydroxyethyldiene) clavam-3-carboxylate]", "values": [
      {"measurement": "solubility in water", "setting": "[1]", "result": "freely water soluble"},
      {"measurement": "hydrolytic degradation", "setting": "[3]; contacted by water", "result": "undergo spontaneous hydrolytic degradation when contacted by water"},
      {"measurement": "spontaneous exothermic reaction", "setting": "[3]; transport in bulk", "result": "undergo a spontaneous exothermic reaction with the release of large quantities of gas and fumes"}
    ]}
  ]
}
